Structures are written as SMILES.

For the assay, the target named is T1, recombinant human GR (Homo sapiens, UniProt P04150).
T1 construct: purchased Panvera/Invitrogen P2812 (kit P2893)
T1 sequence (P04150 1-777): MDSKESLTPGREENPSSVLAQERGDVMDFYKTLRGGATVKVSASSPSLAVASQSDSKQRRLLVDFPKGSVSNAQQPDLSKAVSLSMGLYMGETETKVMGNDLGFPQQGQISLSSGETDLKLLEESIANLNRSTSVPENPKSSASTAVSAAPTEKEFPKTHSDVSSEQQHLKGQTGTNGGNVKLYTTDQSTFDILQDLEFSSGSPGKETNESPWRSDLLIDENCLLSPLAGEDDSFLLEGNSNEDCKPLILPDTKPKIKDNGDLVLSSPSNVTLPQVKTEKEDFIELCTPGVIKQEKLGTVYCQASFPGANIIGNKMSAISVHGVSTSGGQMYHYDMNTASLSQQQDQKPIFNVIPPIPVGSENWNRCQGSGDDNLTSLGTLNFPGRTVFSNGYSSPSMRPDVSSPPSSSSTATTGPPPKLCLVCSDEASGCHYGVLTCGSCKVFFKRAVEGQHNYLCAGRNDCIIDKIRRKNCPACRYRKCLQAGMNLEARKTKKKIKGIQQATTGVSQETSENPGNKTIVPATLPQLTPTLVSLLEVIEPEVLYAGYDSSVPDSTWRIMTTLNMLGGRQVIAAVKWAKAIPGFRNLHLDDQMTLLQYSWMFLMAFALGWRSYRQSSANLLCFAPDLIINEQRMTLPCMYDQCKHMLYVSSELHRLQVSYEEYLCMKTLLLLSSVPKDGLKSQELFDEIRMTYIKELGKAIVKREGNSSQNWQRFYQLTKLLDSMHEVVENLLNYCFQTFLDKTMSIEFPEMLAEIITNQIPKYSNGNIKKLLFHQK
Put plainly: Human Glucocorticoid Receptor (GR) fluorescence polarization binding assay (GRhuFL_FP_v2). To be noted: GS Red tracer, 2 hours at room temperature, 100% control 10 μM Dexamethasone, read-out: GRhuFL_FP_v2 (GR-binders) IC50. As to the method:
Human Glucocorticoid Receptor (GR) Assay
The assay is based on a commercial kit from Panvera/Invitrogen (Part number P2893). The assay technology is fluorescence polarization. […] The GR and Stabilizing Peptide reagents are stored at −70° C. while the GS Red is stored at −20° C. Also included in the kit are 1M DTT (Panvera, Part number P2325, stored at −20° C.) and GR Screening buffer 10× (Panvera, Part number P2814, stored at −70° C. initially but once thawed stored at room temperature). Avoid repeated freeze/thaws for all reagents. The GR Screening buffer 10× comprises 100 mM potassium phosphate, 200 mM sodium molybdate, 1 mM EDTA and 20% DMSO.
0% control was 100% DMSO and 100% control was 10 μM Dexamethasone. Background solution (8 μL; assay buffer 10×, Stabilizing Peptide, DTT and ice cold MQ water) was added to the background wells. GS Red solution (7 μL; assay buffer 10×, Stabilizing Peptide, DTT, GS Red and ice cold water) was added to all wells except background wells. GR solution (7 μL; assay buffer 10×, Stabilizing Peptide, DTT, GR and ice cold water) was added to all wells. The plate was sealed and incubated in a dark at room temperature for 2 hours.
One may read the IC50 as the concentration needed to halve the response being measured. For the compound `Cc1cc(C)c(S(=O)(=O)N[C@H]2CCN(c3cccc4ncccc34)C2)c(C)c1` [Example 1, 2,4,6-Trimethyl-N-[(3S)-1-quinolin-5-ylpyrrolidin-3-yl]benzenesulfonamide], the IC50 was found to be 48 nM. The result for `O=S(=O)(N[C@H]1CCN(c2cccc3c2cnn3-c2ccc(F)cc2)C1)c1c(Cl)cc(Cl)cc1Cl` [Example 4, 2,4,6-Trichloro-N-{(3S)-1-[1-(4-fluorophenyl)-1H-indazol-4-yl]pyrrolidin-3-yl}benzenesulfonamide] reads 25 nM. With `O=S(=O)(N[C@H]1CCN(c2cccc3c2cnn3-c2ccc(F)nc2)C1)c1c(Cl)cc(Cl)cc1Cl` [Example 3, 2,4,6-Trichloro-N-[(3S)-1-[1-(6-fluoropyridin-3-yl)-1H-indazol-4-yl]pyrrolidin-3-yl]benzenesulfonamide], the concentration for half-maximal inhibition (IC50) came out at 19 nM. On to `Cc1cc(C)c(S(=O)(=O)N[C@H]2CCN(c3cccc4c3cnn4-c3ccc(F)nc3)C2)c(C)c1` [Example 7, N-{(3S)-1-[1-(6-Fluoropyridin-3-yl)-1H-indazol-4-yl]pyrrolidin-3-yl}-2,4,6-trimethylbenzenesulfonamide], for which the half-inhibitory concentration (IC50) is 38 nM. The result for `Cc1cc(Cl)cc(Cl)c1S(=O)(=O)N[C@H]1CCN(c2cccc3c2cnn3-c2ccc(F)nc2)C1` [Example 5, 2,4-Dichloro-N-{(3S)-1-[1-(6-fluoropyridin-3-yl)-1H-indazol-4-yl]pyrrolidin-3-yl}-6-methylbenzenesulfonamide] reads 25 nM. The result for `Cc1cc(Cl)cc(Cl)c1S(=O)(=O)N[C@H]1CCN(c2cccc3ncccc23)C1` [Example 6, 2,4-Dichloro-6-methyl-N-[(3S)-1-quinolin-5-ylpyrrolidin-3-yl]benzenesulfonamide] reads 26 nM. The result for `Cc1nn(C2CCCC2)c(C)c1S(=O)(=O)N[C@H]1CCN(c2cccc3c2cnn3-c2ccc(F)cc2)C1` [Example 9, 1-Cyclopentyl-N-{(3S)-1-[1-(4-fluorophenyl)-1H-indazol-4-yl]pyrrolidin-3-Yl}-3,5-dimethyl-1H-pyrazole-4-sulfonamide] reads 120 nM. With `O=S(=O)(N[C@H]1CCN(c2cccc3ncccc23)C1)c1c(Cl)cc(Cl)cc1Cl` [Example 2, 2,4,6-Trichloro-N-[(3S)-1-quinolin-5-ylpyrrolidin-3-yl]benzenesulfonamide], the 50% inhibitory concentration (IC50) was found to be 17 nM.

(Values after patent US20090170898A1, “Sulphonamide Derivatives as Modulators of the Glucocorticoid Receptor” (priority 2006, published 2009).)
